The test system of data set [1] is S. typhimurium TA1535, TA97a, TA98, TA100 and E. coli WP2. Kind of data set: Micro Ames test. The note with it: five bacteria strains, with or without S9. How it is done:
To determine the potential genotoxicity of YC-001, a Micro Ames test was performed by the Charles River Laboratories, Inc. The S9 microsomal fraction was obtained from Moltox Molecular Toxicology, Inc. (Boone, NC, USA). A premixture was prepared including 25 μL of S9 mix (10% v/v S9 fraction in 8 mM MgCl2, 33 mM KCl, 100 mM sodium phosphate buffer, pH 7.4, +S9) or phosphate buffer (0.2 M sodium phosphate, pH 7.4, 0S9), 5 μL of bacterial culture (>1000×10^6 bacteria mL^−1) and 100 μL of molten top agar supplemented with 0.05 mM biotin and minimal histidine (0.05 mM) and minimal tryptophan (0.05 mM). The 24-well plates were prepared by adding 1.3 mL of minimal bottom agar (1.3% agar, Vogel-Bonner medium E and 0.25% glucose) to each well. A 10 μL aliquot of YC-001 working solution/negative/positive control was added to each well followed by addition of 130 μL of the premixture. The plates kept on a leveled surface for 1 h while the top agar solidified, then were incubated at 37° C. for 72 h. After this period, plates were stored at 4° C. before revertant colony counts were manually recorded using an inverted microscope. […]
(In the Ames test, an excess of revertant colonies over the control signals mutagenicity.)

A short description of data set [2]: Metabolic stability in mouse liver microsomes. It counts as in vitro ADME. The note with it: 5 μM, with NADPH, vs verapamil. On the procedure: A standard metabolic stability assay was performed in the presence of mouse or human liver microsomes. YC-001 (5 μM) was incubated with the microsomes (0.125 mg mL^−1) resuspended in 0.2 mL of PBS buffer, pH 7.4 composed of 10 mM Na2HPO4, 1.8 mM KH2PO4, 137 mM NaCl, and 2.7 mM KCl. The enzymatic reaction to produce oxidized metabolites was initiated by addition of NADPH (1 mM). Samples were incubated at 37° C. for up to 240 min. Incubation without the cofactor was conducted in parallel to assess NADPH-independent clearance. The reactions were stopped with 0.2 mL of methanol followed by 0.3 mL chloroform. Residual YC-001 was extracted by vigorous shaking. To facilitate phase separation, the samples were spun down for 2 min, 15,000×g. The chloroform fraction was collected, dried down, and the extracted organic compounds were redissolved in 0.2 mL of methanol. To quantify YC-001, the samples were injected onto an Eclipse XDB-C18 column (4.6×150 mm, 5 μm) (Agilent Technologies) equilibrated with solvent composed of 30% acetonitrile in water (v/v), and 0.1% formic acid. YC-001 was eluted in a gradient of acetonitrile in water (30-100%) developed within 15 min at a flow rate of 1 mL min^−1, detected at 350 nm, and quantified by correlating peak areas with known quantities of an original synthetic standard. […]
Background: Liver microsomes are a subcellular fraction often used to study metabolism.

Regarding `O=C1OCC(c2ccc(Cl)s2)=C1c1cccs1` [YC-001], in data set [1], the “Ames bacterial mutation test result” value is given as “negative”. Besides, the “initial clearance in liver microsomes” value in data set [2] was “even higher initial clearance”.

The values above are taken from patent publication US12251373B2, “Compounds and methods of treating retinal degeneration” (CASE WESTERN RESERVE UNIVERSITY, priority 2017, dated 2025).
